Results published in patent publication US20080214563A1, “Benzimidazole Thiophene Compounds As Plk Modulators” (priority 2005, published 2008).

Legend:
SKOV3 = experiment: Cell-Titer Glo Cell Growth Inhibition Assay, SKOV-3; assay type: cell-based; details: Homo sapiens, SK-OV-3, CellTiter-Glo, 72 h, read-out: CTG SKOV-3 IC50
Description: (§1) A549-L (human lung), BT474 (human breast), Colo 205 (human colon), H1299 (human lung), Hela (human cervix), HCT-116 (human colon), HN5 (human head and neck), HT29 (human colon), LNCap (human prostate), MCF7 (human breast), MDA-MB468 (human breast), MX-1 (human breast), RPMI 8226 (human peripheral blood), SKOV3 (human ovary) and P388 (murine leukemia) cell lines were cultured in RPMI1640 containing 10% fetal bovine serum at 37° C. in a 5% CO2 incubator. Cell lines were split into T75 flasks (Falcon #353136) two to three days prior to assay set up at density which yields approximately 70-80% confluency at time of harvest for assay. Cells were harvested using 0.25% trypsin with EDTA (Glibco/Invitrogen #25200-056), Cell counts were performed on cell suspensions using Trypan Blue exclusion staining, cells were then plated in 105 uL of culture media per well at the following densities in 96 well Costar #3916 black flat bottom plates: All human cell lines were plated at 500 cells/well. P388 were plated at 250 cells/well. All plates were placed at 5% CO2 37° C. overnight and then test compounds were added the following day. One plate of each cell type is treated with CellTiter-Glo (Promega #G7573) for a day 0 proliferation measurement and read as described below. The test compounds are prepared in clear U bottom polypropylene 96 well plates (Falcon #35-1190 with consecutive two fold dilutions. 9 uL of these dilutions was added into each well of the cell plates. The final concentration of DMSO in all wells is 0.15%. Cells were incubated at 37° C., 5% CO2 for 72 h. Following 72 h of incubation with compounds each plate was developed and read. CellTiter-Glo reagent was added to assay plates using a volume equivalent to the cell culture volume in the wells. Plates were shaken for approximately two minutes and incubated at room temperature for approximately 15 min and the chemiluminescent signal is read on the Victor V or Envison 2100 reader. […] Concentration of compound that inhibited 50% of cell growth (IC50) was analysis by 4 or 6 parameter fit of data using XLfit, value of no cell addition was subtracted from all samples for background.

P388 = experiment: Cell-Titer Glo Cell Growth Inhibition Assay, P388; assay type: cell-based, murine; details: Mus musculus, CellTiter-Glo, 72 h, read-out: CTG P388 IC50
Description: as §1

[1] = Intravenous pharmacokinetics in CD-1 mouse; assay type: in vivo; details: plasma, iv bolus, male CD-1 mouse, dose 1.9-7.4 mg/kg per compound (Table 3); for clearance: read-out: Plasma CL
Description: Preliminary investigation of the intravenous pharmacokinetics of compounds of invention were carried out in fed conscious CD-1 mouse. Compounds were formulated as 1-10 mg/kg, 5 mL/kg, 1-2 mg/mL solution (Table 3). Twenty one male mice (n=3 mice per time point) (˜30 g) received dose solution by bolus injection in the tail vein. The formulation for iv were either 20% beta cyclodextrin in saline pH 3.5-6 or PEG400:ethanol:saline (50:15:35 v/v). Blood samples (˜0.4 mL) were collected terminally by cardiac puncture following anesthetization in a CO2 chamber at 2, 15, 30, 60 min, 2, 4, and 6 h following iv administration. Blood samples were collected into tubes containing heparin and placed on crushed ice promptly after collection. Plasma was collected by centrifugation, frozen and stored at about −80° C. prior to analysis. Blood or plasma concentrations were determined by LC/MS/MS equipped with an electrospray ion source and using calibration curves for the appropriate matrix. The lower level of quantitation (LLQ) was 10 ng/mL. Blood or plasma concentration-time data were analyzed by non-compartmental methods using the computer program WinNonlin Professional (version 4.1). Area under the blood or plasma concentration-time curve (AUC) was calculated using the linear trapezoidal rule for each incremental trapezoid up to Cmax, and the log trapezoidal rule for each trapezoid thereafter. The terminal elimination rate constant (λz) was derived from the log-linear disposition phase of the concentration-time curve using least-squares regression analysis with visual inspection of the data to determine the appropriate number of terminal data points for regression analysis.
Following iv administration, the total body clearance (CL) was estimated. CL was calculated by dividing the dose by AUC(0−t). The clearance values were assigned as follows. Low <30 mL/min/kg, moderate 30-70 mL/min/kg, high >70 mL/min/kg. The assignment was based on hepatic blood flow i.e. hepatic blood flow of 0-30% low, 30-70% moderate and 70-100% high. The hepatic blood flow in mouse is ˜100 mL/min/kg.

HT29 = experiment: Cell-Titer Glo Cell Growth Inhibition Assay, HT29; assay type: cell-based; details: Homo sapiens, HT-29, CellTiter-Glo, 72 h, read-out: CTG HT29 IC50
Description: as §1

MX-1 [2] = experiment: Cell-Titer Glo Cell Growth Inhibition Assay, MX-1; assay type: cell-based; details: Homo sapiens, MX1, CellTiter-Glo, 72 h, read-out: CTG MX-1 IC50
Description: as §1

HCT-116 = experiment: Cell-Titer Glo Cell Growth Inhibition Assay, HCT116; assay type: cell-based; details: Homo sapiens, CellTiter-Glo, 72 h, read-out: CTG HCT116 IC50
Description: as §1

Colo 205 = experiment: Cell-Titer Glo Cell Growth Inhibition Assay, COLO205; assay type: cell-based; details: Homo sapiens, CellTiter-Glo, 72 h, read-out: CTG COLO205 IC50
Description: as §1

A549-L = experiment: Cell-Titer Glo Cell Growth Inhibition Assay, A549-L; assay type: cell-based; details: Homo sapiens, CellTiter-Glo, 72 h, read-out: CTG A549-L IC50
Description: as §1

PLK1 kinase domain = molecular target: T1, PLK1 kinase domain (Homo sapiens, UniProt P53350); experiment: Assay for Inhibition of PLK1 (33P SPA kinase assay); assay type: biochemical; details: 2 nM PLK1 kinase domain, 1 μM ATP; read-out: PLK1 pIC50 (converted)
T1 construct: made in house; host or cells: baculovirus infected T. ni cells
Description: All procedures were performed at 4° C. Cells were lysed in 50 mM HEPES, 200 mM NaCl, 50 mM imidazole, 5% glycerol; pH 7.5. The homogenate was centrifuged at 14K rpm in a SLA-1500 rotor for 1 h and the supernatant filtered through a 1.2 micron filter. The supernatant was loaded onto a Nickel chelating Sepharose (Amersham Pharmacia) column and washed with lysis buffer. Protein was eluted using 20%, 30% and 100% buffer B steps where buffer B is 50 mM HEPES, 200 mM NaCl, 300 mM imidazole, 5% glycerol; pH 7.5. Fractions containing PLK were determined by SDS-PAGE. Fractions containing PLK were diluted five-fold with 50 mM HEPES, 1 mM DTT, 5% glycerol; pH 7.5, then loaded on an SP Sepharose (Amersham Pharmacia) column. After washing the column with 50 mM HEPES, 1 mM DTT, 5% glycerol; pH 7.5, PLK was step eluted with 50 mM HEPES, 1 mM DTT, 500 mM NaCl; 5% glycerol; pH 7.5. PLK was concentrated using a 10 kDa molecular weight cutoff membrane and then loaded onto a Superdex 200 gel filtration (Amersham Pharmacia) column equilibrated in 25 mM HEPES, 1 mM DTT, 500 mM NaCl, 5% glycerol; pH 7.5. Fractions containing PLK were determined by SDS-PAGE. PLK was pooled, aliquoted and stored at −80° C. Samples were quality controlled using mass spectrometry, N-terminal sequencing and amino acid analysis.
B. Enzyme activity +/− inhibitors was determined as follows:
All measurements were obtained under conditions where signal production increased linearly with time and enzyme. Test compounds were added to white 384-well assay plates (0.1 μL for 10 μL and some 20 μl assays, 1 μL for some 20 μL assays) at variable known concentrations in 100% DMSO. DMSO (1-5% final, as appropriate) and EDTA (65 mM in reaction) were used as controls.
Reaction Mix (10 or 20 μL) was quickly added to each well immediately following addition of enzyme via automated liquid handlers and incubated 1-1.5 h at 22° C. The 20 μL enzymatic reactions were stopped with 50 μL of stop mix (50 mM EDTA, 4.0 mg/mL Streptavidin SPA beads in Standard Dulbecco's PBS (without Mg^2+ and Ca^2+), 50 μM ATP) per well. The 10 μL reactions were stopped with 10 μL of stop mix (50 mM EDTA, 3.0 mg/mL Streptavidin-coupled SPA Imaging Beads (“LeadSeeker”) in Standard Dulbecco's PBS (without Mg^2+ and Ca^2+), 50 μM ATP) per well. Plates were sealed with clear plastic seals, spun at 500×g for 1 min or settled overnight, and counted in Packard TopCount for 30 seconds/well (regular SPA) or imaged using a Viewlux imager (LeadSeeker SPA). Signal above background (EDTA controls) was converted to percent inhibition relative to that obtained in control (DMSO-only) wells.

RKO = experiment: Methylene Blue Cell Growth Inhibition Assay, RKO; assay type: cell-based; details: Homo sapiens, 72 h, read-out: MEB RKO IC50
Description: (§2) Normal human foreskin fibroblasts (HFF), human colon (HCT116, RKO), lung (H460, A549) and breast (MCF7) tumor cell lines were cultured in high glucose DMEM (Life Technologies) containing 10% fetal bovine serum (FBS) at 37° C. in a humidified 5% CO2, 95% air incubator. Cells were harvested using trypsin/EDTA, counted using a haemocytometer, and plated in 100 μL of culture media per well, at the following densities, in a 96-well tissue culture plate (Falcon 3075): HFF 5,000 cells/well, HCT116 3,000 cells/well, RKO 2,500 cells/well, H460 2,500 cells/well, A549 5,000 cells/well, MCF7 4,000 cells/well. The next day, compounds were diluted in low glucose DMEM containing 100 μg/mL gentamicin, at twice the final required concentration, from 10 mM stock solutions in DMSO. 100 μL/well of these dilutions were added to the 100 μL of media currently in the assay plates. Medium containing 0.6% DMSO was added to control wells. The final concentration of DMSO in all wells was 0.3%. Cells were incubated at 37° C., 5% CO2 for 72 h. Medium was removed by aspiration. Cell biomass was estimated by staining cells with 80 μL per well methylene blue (Sigma M9140, 0.5% in 50:50 ethanol:water), and incubation at room temperature for 30-60 min. Stain was removed by aspiration and the plates rinsed by immersion in water, then air-dried. To release stain from the cells, 100 μL of solubilization solution was added (1% N-lauroyl sarcosine, Sodium salt, Sigma L5125, in PBS), and plates were shaken gently for about 30 min. Optical density at 620 nm was measured on a microplate reader. Percent inhibition of cell growth was calculated relative to vehicle treated control wells. Concentration of compound that inhibits 50% of cell growth (IC50) was interpolated using nonlinear regression (Levenberg-Marquardt) and the equation, y=Vmax*(1−(x/(K+x)))+Y2, where “K” was equal to the IC50.

H460 = experiment: Methylene Blue Cell Growth Inhibition Assay, H460; assay type: cell-based; details: Homo sapiens, NCI-H460, 72 h, read-out: MEB H460 IC50
Description: as §2

HCT116 = experiment: Methylene Blue Cell Growth Inhibition Assay, HCT116; assay type: cell-based; details: Homo sapiens, HCT-116, 72 h, read-out: MEB HCT116 IC50
Description: as §2

MX-1 [3] = experiment: Methylene Blue Cell Growth Inhibition Assay, MX-1; assay type: cell-based; details: Homo sapiens, MX1, 72 h, read-out: MEB MX-1 IC50
A549 = experiment: Methylene Blue Cell Growth Inhibition Assay, A549; assay type: cell-based; details: Homo sapiens, 72 h, read-out: MEB A549 IC50
Description: as §2

[4] = system: Normal human foreskin fibroblasts (HFF); experiment: Methylene Blue Cell Growth Inhibition Assay, HFF; assay type: cell-based; details: Fibroblast, 72 h, read-out: MEB HFF IC50
Description: as §2

T1 sequence (P53350 21-346): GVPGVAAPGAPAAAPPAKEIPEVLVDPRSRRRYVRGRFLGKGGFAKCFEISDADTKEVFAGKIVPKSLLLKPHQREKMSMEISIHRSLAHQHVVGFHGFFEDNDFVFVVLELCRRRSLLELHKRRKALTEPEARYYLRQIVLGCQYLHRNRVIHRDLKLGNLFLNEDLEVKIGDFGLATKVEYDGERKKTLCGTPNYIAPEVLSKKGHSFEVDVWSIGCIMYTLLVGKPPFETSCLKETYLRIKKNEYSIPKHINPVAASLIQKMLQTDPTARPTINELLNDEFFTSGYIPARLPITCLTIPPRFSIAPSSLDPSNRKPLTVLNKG

## C[C@@H](Oc1cc(-n2cnc3cc(-c4ccnc(N5CCN(C)CC5)c4)ccc32)sc1C(N)=O)c1ccccc1C(F)(F)F [Example 2, 5-{5-[2-(4-Methyl-1-piperazinyl)-4-pyridinyl]-1H-benzimidazol-1-yl}-3-({(1R)-1-[2-(trifluoromethyl)phenyl]ethyl}oxy)-2-thiophenecarboxamide]
SKOV3
  IC50: 100 to 1000 nM
P388
  IC50: 100 to 1000 nM
[1]
  AUC(0-t): 2200 ng·h/mL
  clearance: 32.3 mL/min/kg
HT29
  IC50: < 100 nM
MX-1 [2]
  IC50: < 100 nM
HCT-116
  IC50: < 100 nM
Colo 205
  IC50: < 100 nM
A549-L
  IC50: < 100 nM

## C[C@@H](Oc1cc(-n2cnc3cc(-c4ccnc(NC5CCN(C)CC5)c4)ccc32)sc1C(N)=O)c1ccccc1C(F)(F)F [Example 3, 5-(5-{2-[(1-Methyl-4-piperidinyl)amino]-4-pyridinyl}-1H-benzimidazol-1-yl)-3-({(1R)-1-[2-(trifluoromethyl)phenyl]ethyl}oxy)-2-thiophenecarboxamide]
SKOV3
  IC50: < 100 nM
P388
  IC50: < 100 nM
[1]
  AUC(0-t): 1850 ng·h/mL
  clearance: 35.6 mL/min/kg
HT29
  IC50: < 100 nM
MX-1 [2]
  IC50: < 100 nM
HCT-116
  IC50: < 100 nM
Colo 205
  IC50: < 100 nM
A549-L
  IC50: < 100 nM
PLK1 kinase domain
  IC50: < 10 nM

## C[C@@H](Oc1cc(-n2cnc3cc(-c4ccnc(N)c4)ccc32)sc1C(N)=O)c1ccccc1C(F)(F)F [Example 4, 5-[5-(2-Amino-4-pyridinyl)-1H-benzimidazol-1-yl]-3-({(1R)-1-[2-(trifluoromethyl)phenyl]ethyl}oxy)-2-thiophenecarboxamide]
RKO
  IC50: < 100 nM
H460
  IC50: < 100 nM
[1]
  AUC(0-t): 1170 ng·h/mL
  clearance: 37.9 mL/min/kg
HCT116
  IC50: < 100 nM
MX-1 [3]
  IC50: < 100 nM
HCT-116
  IC50: < 100 nM
A549
  IC50: < 100 nM
[4]
  IC50: 100 to 1000 nM

## C[C@@H](Oc1cc(-n2cnc3cc(-c4ccc(NC5CCN(C)CC5)nc4)ccc32)sc1C(N)=O)c1ccccc1Cl [Example 6, 3-{[(1R)-1-(2-Chlorophenyl)ethyl]oxy}-5-(5-{6-[(1-methyl-4-piperidinyl)amino]-3-pyridinyl}-1H-benzimidazol-1-yl)-2-thiophenecarboxamide]
SKOV3
  IC50: < 100 nM
P388
  IC50: 100 to 1000 nM
[1]
  AUC(0-t): 2780 ng·h/mL
  clearance: 18.6 mL/min/kg
HT29
  IC50: < 100 nM
MX-1 [2]
  IC50: < 100 nM
HCT-116
  IC50: < 100 nM
Colo 205
  IC50: < 100 nM
A549-L
  IC50: < 100 nM
